Several values for one entry are separate records, joined by “and”; a condition that tells them apart may be missing. Equal values may be shown once. HELM strings list units from the 5' end as sugar, base in round brackets, then linkage (d deoxyribose, r ribose, m 2'-O-methyl, p phosphodiester). Strings are as the collection lists them, not checked against the first reports. ss, as = sense and antisense strand; [lna] = locked nucleic acid (LNA); [fl2r] = 2'-fluoro
Further: test system not given here.

For the data set the following is noted: siRNA.
Substance “RNA1{m(G)p.r(G)p.m(U)p.r(A)p.m(G)p.r(A)p.m(A)p.r(U)p.m(A)p.r(G)p.m(G)p.r(U)p.m(U)p.r(U)p.m(U)p.r(C)p.m(C)p.r(C)p.m(C)p.r(T)p.r(T)}|RNA2{r(G)p.r(G)p.r(G)p.r(G)p.r(A)p.r(A)p.r(A)p.r(A)p.r(C)p.r(C)p.r(U)p.r(A)p.r(U)p.r(U)p.r(C)p.r(U)p.r(A)p.r(C)p.r(C)p.r(T)p.r(T)}$$$RNA1{StrandType:ss}|RNA2{StrandType:as}$” showed a target mRNA knockdown of 11%.

Consider “RNA1{r(C)p.r(U)p.r(U)p.r(A)p.r(C)p.r(G)p.r(C)p.r(U)p.r(G)p.r(A)p.r(G)p.r(U)p.r(A)p.r(C)p.r(U)p.r(U)p.r(C)p.r(G)p.r(A)p.d(T)p.d(T)}|RNA2{r(U)p.r(C)p.r(G)p.r(A)p.r(A)p.r(G)p.r(U)p.r(A)p.r(C)p.[lna](T)p.r(C)p.r(A)p.r(G)p.r(C)p.r(G)p.r(U)p.r(A)p.r(A)p.r(G)p.[lna](T)p.[lna](T)}$$$RNA1{StrandType:ss}|RNA2{StrandType:as}$”, for which the target mRNA knockdown was 52%.

“RNA1{r(G)p.r(A)p.r(A)p.r(A)p.r(C)p.m(U)p.m(G)p.r(G)p.m(U)p.r(A)p.r(C)p.m(U)p.r(U)p.r(U)p.r(C)p.r(C)p.r(C)p.r(C)p.r(C)p.r(T)p.r(T)}|RNA2{r(G)p.r(G)p.r(G)p.r(G)p.r(G)p.r(A)p.r(A)p.r(A)p.r(G)p.m(U)p.r(A)p.r(C)p.m(C)p.m(A)p.r(G)p.r(U)p.r(U)p.r(U)p.r(C)p.r(T)p.r(T)}$$$RNA1{StrandType:ss}|RNA2{StrandType:as}$” yielded a target mRNA knockdown of 85%.

The substance “RNA1{r(A)p.r(A)p.r(G)p.r(G)p.r(A)p.r(C)p.r(C)p.[fl2r](U)p.r(A)p.r(G)p.r(A)p.r(G)p.r(G)p.r(A)p.r(G)p.r(U)p.[fl2r](C)p.r(A)p.r(C)p.r(T)p.r(T)}|RNA2{r(G)p.[fl2r](U)p.r(G)p.r(A)p.r(C)p.r(U)p.r(C)p.r(C)p.r(U)p.r(C)p.[fl2r](U)p.r(A)p.r(G)p.r(G)p.r(U)p.r(C)p.r(C)p.r(U)p.r(U)p.r(T)p.r(T)}$$$RNA1{StrandType:ss}|RNA2{StrandType:as}$” gave a target mRNA knockdown of 87%.

As to “RNA1{r(G)p.r(A)p.r(G)p.r(G)p.r(A)p.r(A)p.r(G)p.r(A)p.m(U)p.r(G)p.r(A)p.r(G)p.r(U)p.r(U)p.r(G)p.r(U)p.r(A)p.r(C)p.r(C)p.r(T)p.r(T)}|RNA2{r(G)p.r(G)p.r(U)p.r(A)p.m(C)p.r(A)p.r(A)p.r(C)p.r(U)p.m(C)p.r(A)p.r(U)p.r(C)p.r(U)p.r(U)p.r(C)p.r(C)p.r(U)p.r(C)p.r(T)p.r(T)}$$$RNA1{StrandType:ss}|RNA2{StrandType:as}$”, the target mRNA knockdown was determined as 77%.

Regarding “RNA1{r(A)p.r(U)p.m(C)p.r(A)p.m(C)p.r(A)p.r(A)p.r(A)p.r(C)p.r(C)p.r(C)p.r(C)p.m(U)p.r(A)p.r(G)p.r(A)p.r(G)p.r(G)p.r(G)p.r(T)p.r(T)}|RNA2{r(C)p.r(C)p.r(C)p.r(U)p.r(C)p.m(U)p.r(A)p.r(G)p.r(G)p.r(G)p.r(G)p.r(U)p.r(U)p.m(U)p.r(G)p.m(U)p.r(G)p.r(A)p.r(U)p.r(T)p.r(T)}$$$RNA1{StrandType:ss}|RNA2{StrandType:as}$”, the target mRNA knockdown was 75%.

Turning to “RNA1{[fl2r](A)p.[fl2r](A)p.r(C)p.r(C)p.r(C)p.[fl2r](A)p.r(C)p.r(C)p.[fl2r](A)p.r(C)p.[fl2r](A)p.r(G)p.r(C)p.[fl2r](U)p.[fl2r](A)p.r(G)p.[fl2r](A)p.[fl2r](A)p.r(C)p.[fl2r](U)p.[fl2r](U)}|RNA2{r(A)p.r(A)p.r(G)p.r(U)p.r(U)p.r(C)p.r(U)p.r(A)p.r(G)p.r(C)p.r(U)p.r(G)p.r(U)p.r(G)p.r(G)p.r(U)p.r(G)p.r(G)p.r(G)p.r(U)p.r(U)}$$$RNA1{StrandType:ss}|RNA2{StrandType:as}$”, the target mRNA knockdown was 37% and 54%.

Values taken from the OligoGym collection.
